Test results: ChEMBL document CHEMBL1201862, “PubChem BioAssay data set” (2004)
Active and inactive are the calls of the source.

Legend:
Steroidogenic factor 1 = Steroidogenic factor 1 (Homo sapiens, UniProt Q13285); assay: Counterscreen for inverse agonists of the liver receptor homolog-1 (LRH-1; NR5A2): Luminescence-based cell-based high throughput dose response assay to identify inverse agonists of the Steroidogenic Factor 1 Nuclear Receptor (SF1; NR5A1).; type: functional
[1] = molecular target: Nuclear receptor subfamily 5 group A member 2 (Homo sapiens, UniProt O00482); type: functional, cell-based;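 also: HEK293T cells transfected with LRH-1 and a StAR promoter luciferase reporter; potency for inhibitors that lower LRH-1 driven reporter light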
Nuclear receptor subfamily 5 group A member 2, sequence (O00482 whole entry): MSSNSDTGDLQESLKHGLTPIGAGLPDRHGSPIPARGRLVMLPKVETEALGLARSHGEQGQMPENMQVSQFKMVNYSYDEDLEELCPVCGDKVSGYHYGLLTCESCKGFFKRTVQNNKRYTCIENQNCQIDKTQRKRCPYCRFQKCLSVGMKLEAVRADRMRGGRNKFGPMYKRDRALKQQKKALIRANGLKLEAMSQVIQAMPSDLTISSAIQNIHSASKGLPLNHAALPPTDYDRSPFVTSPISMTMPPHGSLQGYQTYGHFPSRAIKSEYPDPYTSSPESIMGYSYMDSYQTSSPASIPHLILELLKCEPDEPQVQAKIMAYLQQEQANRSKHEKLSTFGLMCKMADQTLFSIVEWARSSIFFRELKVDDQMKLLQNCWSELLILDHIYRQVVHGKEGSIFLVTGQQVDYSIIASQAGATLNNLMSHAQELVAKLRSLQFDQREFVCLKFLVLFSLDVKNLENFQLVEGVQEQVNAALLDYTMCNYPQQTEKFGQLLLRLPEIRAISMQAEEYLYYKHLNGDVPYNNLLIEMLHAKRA

[2] = nonselective StAR promoter luciferase inhibitors – cell-based, luminescence, luciferase reporter, counter-screen for LRH-1 inverse agonist project, dose response (AID 651969); type: functional
[3] = molecular target: T1, Polyadenylate-binding protein 1 (Homo sapiens, UniProt P11940); assay: MLLE binding blockers, Cy5 peptide tracer – biochemical, fluorescence polarization, Cy5-PAM2 peptide, secondary, miRNA deadenylation inhibitor project, dose response (AID 602260); type: functional; details: read-out: IC50_Mean
T1 sequence (P11940 whole entry, the tested form may be a part): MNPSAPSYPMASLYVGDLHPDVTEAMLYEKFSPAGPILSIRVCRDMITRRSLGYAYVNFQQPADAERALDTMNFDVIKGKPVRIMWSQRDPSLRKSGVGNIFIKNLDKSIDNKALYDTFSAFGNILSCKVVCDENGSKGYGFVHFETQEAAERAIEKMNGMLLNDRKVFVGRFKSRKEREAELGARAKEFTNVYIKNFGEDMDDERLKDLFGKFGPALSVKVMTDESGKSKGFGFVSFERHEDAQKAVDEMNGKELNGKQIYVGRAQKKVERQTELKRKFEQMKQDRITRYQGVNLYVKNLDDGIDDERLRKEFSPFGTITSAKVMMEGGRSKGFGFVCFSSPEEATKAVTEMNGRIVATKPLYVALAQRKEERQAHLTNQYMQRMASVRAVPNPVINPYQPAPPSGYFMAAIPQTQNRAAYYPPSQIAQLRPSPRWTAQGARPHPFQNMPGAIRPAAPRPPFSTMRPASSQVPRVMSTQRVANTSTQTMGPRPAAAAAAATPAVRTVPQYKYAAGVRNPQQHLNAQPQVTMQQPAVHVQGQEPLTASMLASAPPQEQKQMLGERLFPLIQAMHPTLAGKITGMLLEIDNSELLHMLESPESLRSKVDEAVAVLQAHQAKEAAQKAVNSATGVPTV

[4] = molecular target: T1, Polyadenylate-binding protein 1; assay: MLLE domain peptide-binding blockers, IC50 – biochemical, fluorescence polarization, FITC-PAM2 peptide, dose response (AID 602259); type: functional; details: read-out: IC50_Mean
[5] = molecular target: Botulinum neurotoxin type F (Clostridium botulinum, UniProt P30996); assay: High-throughput multiplex microsphere dose response for inhibitors of toxin protease, specifically Botulinum neurotoxin light chain F protease, compounds from Cherry Pick 02.; type: functional; details: read-out: EC50_MICROM
Botulinum neurotoxin type F, sequence (P30996 1-436 limits assumed): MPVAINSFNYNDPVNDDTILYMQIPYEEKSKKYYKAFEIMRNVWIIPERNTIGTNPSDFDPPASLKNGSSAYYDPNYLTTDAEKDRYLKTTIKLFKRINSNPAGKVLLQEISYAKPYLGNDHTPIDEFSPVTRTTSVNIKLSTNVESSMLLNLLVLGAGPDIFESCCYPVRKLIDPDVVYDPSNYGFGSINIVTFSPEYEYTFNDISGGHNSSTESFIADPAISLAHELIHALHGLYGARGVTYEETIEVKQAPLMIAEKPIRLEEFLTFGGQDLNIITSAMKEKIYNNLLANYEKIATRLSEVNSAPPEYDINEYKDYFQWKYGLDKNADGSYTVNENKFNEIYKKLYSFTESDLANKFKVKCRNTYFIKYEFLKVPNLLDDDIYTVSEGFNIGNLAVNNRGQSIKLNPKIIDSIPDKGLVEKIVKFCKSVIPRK

Protein skinhead-1 = molecular target: T2, Protein skinhead-1 (Caenorhabditis elegans, UniProt P34707); type: functional
T2 sequence (P34707 whole entry): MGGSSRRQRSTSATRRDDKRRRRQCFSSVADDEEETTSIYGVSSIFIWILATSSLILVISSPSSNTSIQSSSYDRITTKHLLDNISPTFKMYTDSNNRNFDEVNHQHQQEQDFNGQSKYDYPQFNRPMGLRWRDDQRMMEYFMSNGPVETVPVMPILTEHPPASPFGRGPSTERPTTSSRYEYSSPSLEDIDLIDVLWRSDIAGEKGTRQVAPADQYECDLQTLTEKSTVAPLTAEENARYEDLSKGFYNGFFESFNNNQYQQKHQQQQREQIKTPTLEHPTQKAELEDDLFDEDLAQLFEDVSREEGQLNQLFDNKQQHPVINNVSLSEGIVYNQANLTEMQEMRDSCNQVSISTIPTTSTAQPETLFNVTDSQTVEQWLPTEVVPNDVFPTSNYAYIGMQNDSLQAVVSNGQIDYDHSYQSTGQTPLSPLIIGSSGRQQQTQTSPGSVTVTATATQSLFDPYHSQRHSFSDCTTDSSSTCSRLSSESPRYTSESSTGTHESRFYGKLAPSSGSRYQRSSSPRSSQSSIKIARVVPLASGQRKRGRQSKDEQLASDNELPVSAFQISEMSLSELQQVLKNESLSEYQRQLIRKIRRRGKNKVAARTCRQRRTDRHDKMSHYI

[6] = molecular target: Dual specificity protein phosphatase 3 (Homo sapiens, UniProt P51452); assay: VHR phosphatase inhibition, dose response, selectivity assay for STEP inhibitor project, biochemical (AID 602374); type: functional; details: read-out: IC50_Mean
Dual specificity protein phosphatase 3, sequence (P51452 whole entry): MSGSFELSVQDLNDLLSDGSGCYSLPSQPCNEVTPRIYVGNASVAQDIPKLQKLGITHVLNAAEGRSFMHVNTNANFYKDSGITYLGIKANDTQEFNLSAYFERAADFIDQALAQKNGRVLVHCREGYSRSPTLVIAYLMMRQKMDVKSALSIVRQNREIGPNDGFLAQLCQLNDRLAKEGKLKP

[7] = molecular target: T3, Tyrosine-protein phosphatase non-receptor type 22 (Homo sapiens, UniProt Q9Y2R2); assay: lymphoid phosphatase LYP inhibitors – biochemical, selectivity assay for STEP inhibitor project, dose response (AID 624241); type: functional
T3 sequence (Q9Y2R2 whole entry): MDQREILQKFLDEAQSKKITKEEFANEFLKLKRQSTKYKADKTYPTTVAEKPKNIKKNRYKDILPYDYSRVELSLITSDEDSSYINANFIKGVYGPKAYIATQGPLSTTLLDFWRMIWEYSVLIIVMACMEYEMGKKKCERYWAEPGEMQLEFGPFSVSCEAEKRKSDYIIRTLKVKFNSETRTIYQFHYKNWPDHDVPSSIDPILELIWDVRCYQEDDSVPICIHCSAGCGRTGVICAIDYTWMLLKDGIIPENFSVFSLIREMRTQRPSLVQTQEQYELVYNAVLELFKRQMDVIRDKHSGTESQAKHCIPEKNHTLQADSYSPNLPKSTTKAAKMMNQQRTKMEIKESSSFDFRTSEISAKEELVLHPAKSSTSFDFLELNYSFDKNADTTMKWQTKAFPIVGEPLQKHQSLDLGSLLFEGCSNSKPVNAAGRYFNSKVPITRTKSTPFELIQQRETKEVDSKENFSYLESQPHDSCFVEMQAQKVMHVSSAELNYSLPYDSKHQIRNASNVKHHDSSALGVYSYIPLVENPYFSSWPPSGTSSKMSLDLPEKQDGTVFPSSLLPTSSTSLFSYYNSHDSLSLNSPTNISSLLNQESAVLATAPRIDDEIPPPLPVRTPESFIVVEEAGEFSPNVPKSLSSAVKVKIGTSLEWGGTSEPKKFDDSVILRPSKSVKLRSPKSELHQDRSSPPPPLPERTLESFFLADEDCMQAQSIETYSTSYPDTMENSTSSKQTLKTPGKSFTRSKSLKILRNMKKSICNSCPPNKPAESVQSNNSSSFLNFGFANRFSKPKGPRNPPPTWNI

[8] = molecular target: T4, Low molecular weight phosphotyrosine protein phosphatase (Homo sapiens, UniProt P24666); type: functional; details: read-out: IC50_Mean;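 also: Dose-response confirmation assay measuring inhibition of LMPTP enzyme activity by fluorescence intensity read-out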
T4 sequence (P24666 whole entry): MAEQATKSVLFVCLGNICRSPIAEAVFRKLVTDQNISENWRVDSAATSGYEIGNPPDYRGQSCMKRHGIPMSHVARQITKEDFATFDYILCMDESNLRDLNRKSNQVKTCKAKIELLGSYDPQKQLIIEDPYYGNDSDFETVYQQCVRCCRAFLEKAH

[9] = molecular target: Tyrosine-protein phosphatase non-receptor type 11 (Homo sapiens, UniProt Q06124); assay: PTPN11 enzyme inhibitors – biochemical, selectivity assay for STEP inhibitor project, dose response (AID 602367); type: functional; details: read-out: IC50_Mean
Tyrosine-protein phosphatase non-receptor type 11, sequence (Q06124 whole entry): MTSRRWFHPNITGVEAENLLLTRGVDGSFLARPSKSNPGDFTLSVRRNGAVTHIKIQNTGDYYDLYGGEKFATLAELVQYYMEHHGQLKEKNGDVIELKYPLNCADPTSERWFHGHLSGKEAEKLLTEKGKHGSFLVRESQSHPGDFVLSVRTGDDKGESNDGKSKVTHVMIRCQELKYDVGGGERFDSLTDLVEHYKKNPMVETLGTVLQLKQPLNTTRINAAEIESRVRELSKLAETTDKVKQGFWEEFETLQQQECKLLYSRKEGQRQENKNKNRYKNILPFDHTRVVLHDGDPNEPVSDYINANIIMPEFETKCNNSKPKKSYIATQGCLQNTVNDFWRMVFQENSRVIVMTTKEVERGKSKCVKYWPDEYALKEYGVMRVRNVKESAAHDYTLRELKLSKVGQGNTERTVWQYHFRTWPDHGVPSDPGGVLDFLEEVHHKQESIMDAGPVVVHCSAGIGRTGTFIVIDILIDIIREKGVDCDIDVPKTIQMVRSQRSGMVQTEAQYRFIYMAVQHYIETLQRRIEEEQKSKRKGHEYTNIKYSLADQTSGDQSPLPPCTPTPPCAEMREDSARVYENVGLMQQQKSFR

[10] = molecular target: Tyrosine-protein phosphatase non-receptor type 5 (Homo sapiens, UniProt P54829); assay: PTPN5 enzyme inhibition – biochemical, fluorescence intensity, uHTS hits, confirmation (AID 602372); type: functional; details: read-out: IC50_Mean
Tyrosine-protein phosphatase non-receptor type 5, sequence (P54829 whole entry, the tested form may be a part): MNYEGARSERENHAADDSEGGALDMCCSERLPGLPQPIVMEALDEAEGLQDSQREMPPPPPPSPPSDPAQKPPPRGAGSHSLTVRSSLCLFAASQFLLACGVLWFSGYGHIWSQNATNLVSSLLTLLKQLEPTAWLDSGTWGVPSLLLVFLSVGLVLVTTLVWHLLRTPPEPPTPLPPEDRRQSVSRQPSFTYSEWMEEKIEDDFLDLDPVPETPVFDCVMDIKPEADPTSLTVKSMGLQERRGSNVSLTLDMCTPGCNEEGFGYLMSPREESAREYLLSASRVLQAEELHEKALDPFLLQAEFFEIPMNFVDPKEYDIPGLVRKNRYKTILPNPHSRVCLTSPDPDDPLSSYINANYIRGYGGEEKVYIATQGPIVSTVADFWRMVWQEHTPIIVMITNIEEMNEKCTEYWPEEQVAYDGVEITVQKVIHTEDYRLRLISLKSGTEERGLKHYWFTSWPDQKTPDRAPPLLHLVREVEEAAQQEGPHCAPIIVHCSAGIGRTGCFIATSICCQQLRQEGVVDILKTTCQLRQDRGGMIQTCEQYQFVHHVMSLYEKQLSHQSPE

[11] = molecular target: T5, Carboxy-terminal domain RNA polymerase II polypeptide A small phosphatase 1 (Homo sapiens, UniProt Q9GZU7); assay: CTDSP1 inhibitors, concentration-response, biochemical, absorbance readout, ultra-high-throughput screen actives (AID 540297); type: functional
T5 sequence (Q9GZU7 whole entry): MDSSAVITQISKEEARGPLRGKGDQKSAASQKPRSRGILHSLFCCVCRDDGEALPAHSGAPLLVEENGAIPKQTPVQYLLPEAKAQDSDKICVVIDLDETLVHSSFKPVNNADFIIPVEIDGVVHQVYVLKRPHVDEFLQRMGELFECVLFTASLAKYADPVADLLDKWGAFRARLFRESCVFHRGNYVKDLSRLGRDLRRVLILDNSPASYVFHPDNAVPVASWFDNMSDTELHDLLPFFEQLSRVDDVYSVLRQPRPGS

[12] = molecular target: T6, Protein disulfide-isomerase (Homo sapiens, UniProt P07237); assay: inhibition of PDI-driven insulin aggregation – biochemical, turbidity, absorbance, cherry-picked samples, dose response (AID 602350); type: functional
T6 sequence (P07237 whole entry): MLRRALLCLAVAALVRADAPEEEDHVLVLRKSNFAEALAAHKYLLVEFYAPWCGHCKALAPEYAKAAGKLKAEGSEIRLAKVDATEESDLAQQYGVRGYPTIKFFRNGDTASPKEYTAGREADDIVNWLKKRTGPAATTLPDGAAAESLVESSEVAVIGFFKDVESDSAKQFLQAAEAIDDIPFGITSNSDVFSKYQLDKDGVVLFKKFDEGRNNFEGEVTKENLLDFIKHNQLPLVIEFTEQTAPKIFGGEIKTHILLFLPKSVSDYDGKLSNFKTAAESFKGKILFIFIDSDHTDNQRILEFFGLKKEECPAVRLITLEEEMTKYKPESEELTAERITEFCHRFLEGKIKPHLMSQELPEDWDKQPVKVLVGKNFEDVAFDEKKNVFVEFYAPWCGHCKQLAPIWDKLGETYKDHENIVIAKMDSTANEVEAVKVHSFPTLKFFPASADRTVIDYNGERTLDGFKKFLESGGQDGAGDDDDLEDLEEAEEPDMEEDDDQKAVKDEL

[13] = molecular target: T6, Protein disulfide-isomerase; assay: inhibition of PDI-mediated insulin reduction – biochemical, turbidity, absorbance, cherry-picked samples, set 2, dose response (AID 624274); type: functional
[14] = Dd2 parasite growth inhibition in erythrocytes – SYBR Green, dry powder samples, set 9, dose response (AID 1159568); type: functional, cell-based
[15] = viability loss in LCL cells – cell-based, plate reader, dry powder, set 2, cytotoxicity control, dose response (AID 624367); type: functional
[16] = cytotoxicity in HEK293 background cells – cell-based, dry powder, set 2, counter-screen for EBV LMP1 inhibitor project, dose response (AID 624374); type: functional
HEK293 = assay: viability loss in HEK293T cells – cell-based, ATP luminescence, cherry-pick samples, cytotoxicity control, dose response (AID 687005); type: functional; details: Homo sapiens;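 also: cells exposed to compound for 48 hours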
[17] = HEK293 Cytotoxicity Assay Measured in Cell-Based System Using Plate Reader - 7071-01_Inhibitor_Dose_CherryPick_Activity_Set2.; type: functional
HepG2 = assay: HepG2 Cytotoxicity Assay Measured in Cell-Based System Using Plate Reader - 7071-02_Inhibitor_Dose_CherryPick_Activity.; type: functional; details: Homo sapiens

Steroidogenic factor 1, sequence (Q13285 whole entry): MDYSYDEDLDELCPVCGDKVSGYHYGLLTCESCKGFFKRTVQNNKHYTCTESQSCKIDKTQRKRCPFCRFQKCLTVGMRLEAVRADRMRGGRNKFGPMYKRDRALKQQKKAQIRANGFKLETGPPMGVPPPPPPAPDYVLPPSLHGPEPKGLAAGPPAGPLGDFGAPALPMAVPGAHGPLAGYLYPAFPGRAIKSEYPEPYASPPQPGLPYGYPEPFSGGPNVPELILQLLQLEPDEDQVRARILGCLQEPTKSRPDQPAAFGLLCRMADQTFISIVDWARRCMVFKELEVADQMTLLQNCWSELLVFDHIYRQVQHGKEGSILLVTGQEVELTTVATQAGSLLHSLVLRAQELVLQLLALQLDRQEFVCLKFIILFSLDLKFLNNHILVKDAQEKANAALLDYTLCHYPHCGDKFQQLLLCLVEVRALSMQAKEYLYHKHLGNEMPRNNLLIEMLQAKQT

## CCOc1ccc(NC(=O)CN2CCN(CC(=O)Nc3ccc(OC)cc3)CC2)cc1
Steroidogenic factor 1
  IC50: 3.07 µM (active)
[1]
  IC50: 18.1 µM (inactive)
[2]
  IC50: 35.9 µM (inactive)

## Cc1cc2cc(CNC(=O)c3ccc(S(=O)(=O)N(C)C)cc3)ccc2n1C
[3]
  IC50: > 66 µM (inactive)
[4]
  IC50: > 66 µM (inactive)
[5]
  EC50: > 20 µM (inactive)
Protein skinhead-1
  IC50: > 100 µM (inactive)

## NC(=O)c1cc2ccccc2o/c1=N\NC(=O)c1ccccc1O
[6]
  IC50: 1.93 µM (active)
[7]
  IC50: 90.7 µM (inactive)
[8]
  IC50: 24.2 µM (inactive)
[9]
  IC50: 5.39 µM (active)
[10]
  IC50: 6.57 µM (active)
[11]
  IC50: 7.89 µM (active)

## COc1cccc(/C=N/NC(=O)CNC(=O)c2ccc3c(c2)OCCO3)c1O
[12]
  AC50: < 0.009 µM (active)
[13]
  AC50: 0.009 µM (active)

## CC(C)(C)[S@+]([O-])N1Cc2cc(C(=O)NCC(F)(F)F)nc(-c3cccc(-c4cccc(F)c4)c3)c2[C@@H]1CCO
[14]
  AC50: 6.29 µM (active)
[15]
  AbsAC35: 124.56 µM
[16]
  AbsAC35: 111.16 µM

## O=C(CC1CC1)N1[C@@H]2CN(S(=O)(=O)c3ccccc3)c3ccccc3[C@@H]2[C@@H]1CO
HEK293
  AC50: 28 µM (active)
[17]
  AC50: 28 µM (active)
HepG2
  AC50: 19.8 µM (active)
